From patent US20140349941A1, “AROMATIC-CATIONIC PEPTIDES AND USES OF SAME” (Cornell University, priority 2011, published 2014) come the findings set out here.

The target in one experiment is cytochrome c (Homo sapiens, UniProt P99999). The experiment is described as follows: Cytochrome c reduction monitored by absorption spectroscopy (glutathione or NAC as reducing agent). In kind it is biochemical. On the procedure: Cytochrome c reduction: increasing amounts of aromatic-cationic peptides were added to a solution of oxidized cyt c. The formation of reduced cyt c was monitored by absorbance at […]. The rate of cyt c reduction was determined by non-linear analysis (Prizm software).
Time-resolved UV-Visible absorption spectroscopy was used to study the electron transport process of cyt c in the presence of peptides. Reduced cyt c was monitored by absorbance at a broad-band spectral range (200-1100 nm). The absorption changes were recorded with a UV/Visible spectrophotometer (Ultrospec 3300 pro, GE) in quartz cells with path lengths of 1 or 2 mm. N-acetylcysteine (NAC) and glutathione were used as electron donors to reduce oxidized cyt c. The rate constant of cyt c reduction was estimated by adding various concentrations of peptides. The dose dependence of the peptides was correlated to the cyt c reduction kinetics.
Absorption spectroscopy (UltroSpec 3300 Pro; 220-1100 nm) was used to determine if SS-31 modulates cyt c reduction (FIG. 1). Reduction of cyt c with glutathione is associated with multiple shifts in the Q band (450-650 nm), with a prominent shift at 550 nm.
Reduction of cyt c was monitored by increase in absorbance at 550 nm. […] Similar results were obtained using N-acetylcysteine (NAC) as a reducing agent (not shown).

The next experiment has as its target cyt c (Homo sapiens, UniProt P99999). Put plainly: Photoluminescence of cyt c (532.8 nm laser excitation). The note with it: excitation 532.8 nm. The text has this:
A light source 140, such as a laser or light-emitting diode (LED), illuminates the doped cyt c layer 110 at an excitation wavelength, such as 532.8 nm. […] (As understood by those skilled in the art, the gap between the valence band and the excited state is […] to the excitation wavelength.) After a short relaxation time, the electron decays from the excited state to a conduction band. When the electron relaxes to valence band from the conduction band, the doped cyt c layer 110 emits a photon at a luminescence wavelength, such as 650 nm, fixed by the gap between the valence and conduction bands.
Thus, as the aromatic-cationic peptide or aromatic-cationic peptide/cardiolipin or cardiolipin concentration in the doped cyt c layer 110 varies due to changes in the pH and/or temperature of the test substrate 130, the intensity at the luminescence wavelength varies as well. Detecting this change in intensity with a photodetector 150 yields an indication of the pH and/or temperature of the test substrate 130.
Photoluminescence (PL) was carried out to examine the effects of SS-31 on the electronic structure of conduction band of the heme of cyt c, an energy state responsible for electronic transport (FIG. 3). A […] laser (532.8 nm) was used to excite electrons in cyt c (FIG. 2A). Strong PL emission in cyt c state can be clearly identified at 650 nm (FIG. 2B).

Experiment [1] concerns the target T1, horse radish peroxidase (HRP) (Armoracia rusticana, UniProt P00433).
T1 sequence (P00433 31-338 limits assumed): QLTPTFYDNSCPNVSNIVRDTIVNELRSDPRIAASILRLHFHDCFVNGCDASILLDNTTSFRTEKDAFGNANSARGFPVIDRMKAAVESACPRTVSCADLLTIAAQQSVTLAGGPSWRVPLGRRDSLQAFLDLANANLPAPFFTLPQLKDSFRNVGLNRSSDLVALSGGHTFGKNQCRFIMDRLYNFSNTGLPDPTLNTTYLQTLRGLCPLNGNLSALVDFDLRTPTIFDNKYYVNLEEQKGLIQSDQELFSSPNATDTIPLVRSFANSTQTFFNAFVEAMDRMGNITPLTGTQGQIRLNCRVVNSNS
The experiment is described as follows: HRP activity (amplex red). In kind it is biochemical. The note with it: data not shown. The text has this:
The six coordination of the heme in cytochrome c prevents direct interaction of H2O2 with the catalytic metal site, and native cytochrome c in solution is a poor peroxidase. Upon interaction with CL, cytochrome c undergoes a structural change with rupture of the Fe-Met80 coordination. […] The mechanism of action of cytochrome c peroxidase is similar to that of other peroxidases, such as horse radish peroxidase (HRP). Thus it is possible to use the amplex red-HRP reaction to investigate cytochrome c peroxidase activity. In the presence of peroxidase, amplex red (AR) reacts with H2O2 to form the red-fluorescent oxidation product, resorufin (Ex/Em=571/585).

Chain of cytochrome c (P99999 2-105 limits assumed, species assumed): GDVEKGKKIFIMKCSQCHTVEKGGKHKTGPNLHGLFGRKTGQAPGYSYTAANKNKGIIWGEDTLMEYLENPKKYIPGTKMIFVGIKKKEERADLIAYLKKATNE
Chain of cyt c (P99999 2-105 limits assumed, species assumed): as above

For D-Arg-2′6′Dmt-Lys-Phe-NH2 [SS-31], at cytochrome c (N-acetylcysteine as reducing agent), the “rate of NAC-induced cyt c reduction” value is “dose-dependently increased the rate of NAC-induced cyt c reduction”. Besides, the “kinetics of cyt c reduction induced by glutathione (GSH)” value on cytochrome c (absorbance at 550 nm, FIG. 13) was “can accelerate the kinetics of cyt c reduction”. For the same substance, the “cyt c reduction by peptide alone” value at cytochrome c (peptide alone at 100 μM) was “did not reduce cyt c”. In addition, on cytochrome c (reduction of cyt c with glutathione, FIG. 1A), the “spectral weight shift at 550 nm of cyt c” value is “significant spectral weight shift at 550 nm”. Moreover, the “rate of cyt c reduction” value at cytochrome c (time-dependent spectroscopy, FIG. 1B) is recorded as “increased the rate of cyt c reduction”. The “PL intensity of cyt c at 650 nm” value at cyt c is “increased dose-dependently”. In addition, the HRP activity result in experiment [1] is given as “had no effect on HRP activity”.
